Test results as given in US20070128217A1 (priority 2003, published 2007).

What was measured:
[1] = test system: rabbit serum obtained by immunizing a rabbit with the SARS-CoV strain Frankfurt 1; type: binding; design: Binding of a rabbit serum to linear peptides / Binding of a rabbit serum to looped peptides / Rabbit serum linear peptides / Rabbit serum looped peptides / Binding of a rabbit serum to linear peptides of protein N of SARS-CoV Urbani (Rabbit serum linear peptides) / Binding of a rabbit serum to looped/cyclic peptides of protein N of SARS-CoV Urbani (Rabbit serum looped peptides): unit not given here
[2] = test system: antibodies in sera from SARS patients (sera 1a, 1b, 2, 6, 37, 62, London, SARS-yellow, SARS-green); type: binding, human; design: Binding of serum 6 to linear peptides of protein X1 of SARS-CoV Urbani / Binding of serum 37 to linear peptides of protein X1 of SARS-CoV Urbani / Binding of serum 6 to looped/cyclic peptide (PEPSCAN-ELISA) / Binding of serum 37 to looped/cyclic peptide (PEPSCAN-ELISA) / Binding of serum 37 to looped/cyclic peptides of protein X1 of SARS-CoV Urbani / Binding of serum 6 to linear peptides of protein X2 / Binding of serum 37 to linear peptides of protein X2 / Binding of serum 37 to looped/cyclic peptides of protein X2 of SARS-CoV Urbani / Binding of serum 6 to linear peptides of protein M of SARS-CoV Urbani / Binding of serum 37 to linear peptides of protein M of SARS-CoV Urbani / Binding of serum 6 to looped/cyclic peptides of protein M of SARS-CoV Urbani / Binding of serum 37 to looped/cyclic peptides of protein M of SARS-CoV Urbani / Binding of serum 6 to linear peptides of protein X3 of SARS-CoV Urbani / Binding of serum 37 to linear peptides of protein X3 of SARS-CoV Urbani / Binding of serum 37 to looped/cyclic peptides of protein X3 of SARS-CoV Urbani / Binding of serum 6 to linear peptides of protein X4 of SARS-CoV Urbani / Binding of serum 37 to linear peptides of protein X4 of SARS-CoV Urbani / Binding of serum 37 to looped/cyclic peptides of protein X4 of SARS-CoV Urbani / Binding of serum 6 to linear peptides of protein X5 of SARS-CoV Urbani / Binding of serum 37 to linear peptides of protein X5 of SARS-CoV Urbani / Binding of serum 37 to looped/cyclic peptides of protein X5 of SARS-CoV Urbani / Binding of serum 6 to linear peptides of protein N of SARS-CoV Urbani / Binding of serum 37 to linear peptides of protein N of SARS-CoV Urbani / Binding of serum 6 to linear peptide (PEPSCAN-ELISA) / Binding of serum 1a to looped/cyclic peptides of protein N of SARS-CoV Urbani / Binding of serum 1b to looped/cyclic peptides of protein N of SARS-CoV Urbani / Binding of serum 2 to looped/cyclic peptides of protein N of SARS-CoV Urbani / Binding of serum 6 to looped/cyclic peptides of protein N of SARS-CoV Urbani / Binding of serum 37 to looped/cyclic peptides of protein N of SARS-CoV Urbani / Binding of serum 62 to looped/cyclic peptides of protein N of SARS-CoV Urbani / Binding of serum London to looped/cyclic peptides of protein N of SARS-CoV Urbani / Binding of serum SARS-green to looped/cyclic peptides of protein N of SARS-CoV Urbani: unit not given here
[3] = test system: control sera (pooled serum of ten healthy LUMC hospital workers; commercial negative donor pooled serum from the Dutch bloodbank); type: binding, human; design: Binding of Control serum LUMC to linear peptides / Binding of Control serum Blood-bank to linear peptides / Binding of Control serum LUMC to looped peptides / Binding of Control Serum Blood-Bank to Looped peptides / Binding of Control serum LUMC to linear peptides of the protein M of SARS-CoV Urbani / Binding of Control serum Blood-bank to linear peptides of the protein M of SARS-CoV Urbani / Binding of Control serum LUMC to looped peptides of the protein M of SARS-CoV Urbani / Binding of Control Serum Blood-Bank to Looped peptides of the protein M of SARS-CoV Urbani: unit not given here
[4] = test system: recombinant human anti-SARS-CoV antibody 03-018; type: binding; design: Binding of antibody 03-018 to linear peptides of the N protein of SARS-CoV Urbani / Binding of antibody 03-018 to looped/cyclic peptides of the N protein of SARS-CoV Urbani: unit not given here

Sequence | Binding of a rabbit serum to linear peptides of protein N of SARS-CoV Urbani (Rabbit serum linear peptides) [1] | Binding of a rabbit serum to looped/cyclic peptides of protein N of SARS-CoV Urbani (Rabbit serum looped peptides) [1] | Binding of serum 1a to linear peptides of protein N of SARS-CoV Urbani [2] | Binding of serum 1a to looped/cyclic peptides of protein N of SARS-CoV Urbani [2] | Binding of serum 1b to linear peptides of protein N of SARS-CoV Urbani [2] | Binding of serum 1b to looped/cyclic peptides of protein N of SARS-CoV Urbani [2] | Binding of serum 2 to linear peptides of protein N of SARS-CoV Urbani [2] | Binding of serum 2 to looped/cyclic peptides of protein N of SARS-CoV Urbani [2] | Binding of serum 6 to looped/cyclic peptides of protein N of SARS-CoV Urbani [2] | Binding of serum 37 to looped/cyclic peptides of protein N of SARS-CoV Urbani [2] | Binding of serum 62 to looped/cyclic peptides of protein N of SARS-CoV Urbani [2] | Binding of serum London to looped/cyclic peptides of protein N of SARS-CoV Urbani [2] | Binding of serum SARS-green to looped/cyclic peptides of protein N of SARS-CoV Urbani [2] | Binding of serum SARS-yellow to looped/cyclic peptides of protein N of SARS-CoV Urbani [2] | Binding of Control Serum Blood-Bank to Looped peptides [3] | Binding of Control serum Blood-bank to linear peptides [3] | Binding of Control serum LUMC to linear peptides [3] | Binding of Control serum LUMC to looped peptides [3] | Binding of antibody 03-018 to linear peptides of the N protein of SARS-CoV Urbani [4] | Binding of antibody 03-018 to looped/cyclic peptides of the N protein of SARS-CoV Urbani [4] | further results
QGLPNNTASWFTALT | 0.1 | 0.6 | 0.2 | 0.4 | 0.1 | 0.3 | 0.2 | 0.5 | 0.3 | 0.7 | 0.7 | 0.5 | 0.6 | 0.7 | 0.8 | 0.6 | 0.7 | 0.8 | 0.1 | 0.3 | Binding of serum 6 to linear peptides of protein N of SARS-CoV Urbani [2]: 0.1; Binding of serum 37 to linear peptides of protein N of SARS-CoV Urbani [2]: 0.6; Binding of serum 62 to linear peptides of protein N of SARS-CoV Urbani [2]: 0.7; Binding of serum London to linear peptides of protein N of SARS-CoV Urbani [2]: 0.4; Binding of serum SARS-green to linear peptides of protein N of SARS-CoV Urbani [2]: 0.2; Binding of serum SARS-yellow to linear peptides of protein N of SARS-CoV Urbani [2]: 0.6
QGNFGDQDLIRQGTD | 0.2 | 0.4 |  | 0.4 |  | 0.3 |  | 0.3 | 0.2 | 0.6 | 0.5 | 0.4 | 0.7 | 0.6 | 0.5 | 0.6 | 0.7 | 0.6 | 0.1 | 0.2 | Binding of serum 1a to linear peptide (PEPSCAN-ELISA) [2]: 0.3; Binding of serum 1b to linear peptide (PEPSCAN-ELISA) [2]: 0.2; Binding of serum 2 to linear peptide (PEPSCAN-ELISA) [2]: 0.2; Binding of serum 6 to linear peptide (PEPSCAN-ELISA) [2]: 0.2; Binding of serum 37 to linear peptide (PEPSCAN-ELISA) [2]: 0.8; Binding of serum 62 to linear peptide (PEPSCAN-ELISA) [2]: 0.8; Binding of serum London to linear peptide (PEPSCAN-ELISA) [2]: 0.5; Binding of serum SARS-green to linear peptide (PEPSCAN-ELISA) [2]: 0.6; Binding of serum SARS-yellow to linear peptide (PEPSCAN-ELISA) [2]: 0.8
QGQTVTKKSAAEASK | 0.2 | 0.2 |  | 0.2 |  | 0.1 |  | 0.2 | 0.1 | 0.4 | 0.2 | 0.3 | 0.1 | 0.2 | 0.4 | 1.1 | 1.0 | 0.4 | 0.1 | 0.2 | Recognition of the peptide by sera of SARS-CoV infected individuals, and form (linear, looped/cyclic) in which it is recognized [2]: recognized in linear form
QGTDYKHWPQIAQFA | 0.2 | 0.3 | 0.3 | 0.4 | 0.2 | 0.3 | 0.2 | 0.4 | 0.3 | 0.6 | 0.6 | 0.5 | 0.3 | 0.7 |  |  |  |  | 0.1 | 0.2 | Binding of serum 6 to linear peptides of protein N of SARS-CoV Urbani [2]: 0.2; Binding of serum 37 to linear peptides of protein N of SARS-CoV Urbani [2]: 0.8; Binding of serum 62 to linear peptides of protein N of SARS-CoV Urbani [2]: 0.8; Binding of serum London to linear peptides of protein N of SARS-CoV Urbani [2]: 0.7; Binding of serum SARS-green to linear peptides of protein N of SARS-CoV Urbani [2]: 0.2; Binding of serum SARS-yellow to linear peptides of protein N of SARS-CoV Urbani [2]: 0.7; Control Serum Blood-Bank Looped peptides [3]: 0.6; Control serum Blood-bank linear peptides [3]: 0.8; Control serum LUMC linear peptides [3]: 0.6; Control serum LUMC looped peptides [3]: 0.7
